Laboratory results from US20140364454A1, “METAL-CHELATING COMPOUNDS HAVING AT LEAST ONE POLYAMINO CHAIN” (UNIVERSITE DE RENNES I, priority 2011, published 2014).
Where two headings read alike, the source gives them in different places.

Key:
[1] = system: wild cell line (CHO) of hamster ovarian cells; experiment: Anti-proliferative effect on CHO cells, counting of cell nuclei (Hoechst 33342); assay type: cell-based; details: CHO
Description: The in vitro efficacy of different Quilamines was tested on a wild cell line (CHO) of hamster ovarian cells having PTS and a mutant cell line CHO-MG without PTS. The two cell types CHO and CHO-MG were treated, 24 hours after being seeded in 96-well microplates, by concentrations of different Quilamines ranging from 0.1 to 400 micromoles per liter. The cytostatic (anti-proliferative) effects and cytotoxic effects of Quilamine after 72 hours' treatment of the cells were assessed respectively by counting cell nuclei after DNA marking by the Hoechst 33342 fluorescent intercalant dye and by analysis of membrane damage detected by the dosing of the lactate dehydrogenase activity (LHD) in the supernatants.
The IC50 inhibitor concentration corresponding to the concentration in Quilamines enables the inhibition at 50% of the cell proliferation was deduced from the dose-effect curves of numeration of the nuclei of the living cells on the CHO and CHO-MG cell lines. […] The lower the value of IC50, the greater the efficiency of the anti-proliferative effect of the tested chelators.
A comparison was made of the cytostatic or anti-proliferative action and the cytotoxic action for 72 h of treatment by Quilamine HQ1-44 and 8-hydroxyquinoline and ICL670, on the CHO cell lines in the presence and without the presence of exogenous iron, in the form of Fe(III) citrate in a concentration of 20 micromoles per liter. The results obtained are shown in FIG. 4, FIG. 4A relating to the results on cell viability and FIG. 4B relating to the results on cell toxicity.

[2] = system: Caco-2 cells; experiment: LC/MSMS of intra-cell polyamines in Caco-2 cells; assay type: cell-based, human; details: proliferating Caco-2, 10 micromoles per liter, 72 hours
Description: After treatment for 72 hours of the Caco-2 cells, in proliferative phase by Quilamine HQ1-44 and ICL670 in a concentration of 10 micromoles per liter, a biochemical analysis is carried out by tandem mass spectrometry coupled with liquid chromatography (LC/MSMS) of the intra-cell polyamines such as putrescine, spermidine and spermine, after dansylation.

[3] = system: HepG2 cells; experiment: Cytotoxic effect on HepG2 cells, LDH release; assay type: cell-based, human; details: for influence of exogenous iron on the cytotoxic effect: HepG2, presence of exogenous iron
Description: (§1) The implication of PTS in the cytostatic and cytotoxic action of Quilamines was analyzed in proliferating HepG2 hepatocyte tumor cells after activation of PTS or competitive inhibition of PTS by spermidine, a polyamine naturally present in the organism and most efficaciously captured by the PTS. The conditions of treatment by Quilamines are identical to those described in paragraph III-1.
(§2) Inhibiting ornithine decarboxylase (ODC), the key enzyme in the biosynthesis of polyamines, causes a depletion of intra-cell polyamines and an activation of PTS which enables the deficiency to be met. This activation of PTS is done by means of the ODC inhibitor, alpha-difluoromethyl ornithine (DFMO).
(§3) The competitive inhibition of PTS by spermidine is prompted by the co-treatment of the cells by the Quilamines in the presence of spermidine, in a concentration of 50 micromoles per liter.

[4] = system: Caco-2 cells; experiment: Cell viability of proliferating Caco-2 cells (number of nuclei); assay type: cell-based, human; details: for Constituent 1 (1-10 μM) % cell / Constituent 2 (10-100 μM) % cell: Caco-2 J4, no exogenous iron; for IC50: Homo sapiens, no exogenous iron
Description: The action of Quilamines on the cell viability was analyzed on enterocyte cells of the Caco-2 tumor cell line derived from human colon carcinoma and compared with the action of ICL670 in the presence or absence of exogenous iron, after activation (DFMO) or competitive inhibition by spermidine, of the PTS. The operating conditions used are identical to those used for CHO/CHO-MG and HepG2 cells.
The results for the measurement of the anti-proliferative effect of Quilamines, and of ICL670 on the proliferating cells (cytostatic constituent) when there is no exogenous iron have been listed in the table 4 below.

[5] = system: HepG2 cells; experiment: Anti-proliferative effect on HepG2 cells (nuclei count or SDH activity); assay type: cell-based, human; details: for IC50: Homo sapiens, HepG2, absence of exogenous iron, read-out: IC50 associated with the cytostatic effect; for IC50 / % of HepG2 cells concerned by the anti-proliferative effect: 72 h; for % of HepG2 cells concerned by the anti-proliferative effect: absence of exogenous iron
Text: The majority of the Quilamines, like ICL670, show biphase dose-effect curves in the absence of exogenous iron, with an anti-proliferative constituent for concentration values of 1 to 10 micromoles per liter and a cytotoxic constituent associated with a release of LDH for concentration values of over 10 micromoles per liter. The percentage of HepG2 cells concerned by the anti-proliferative effect and the values of IC50 associated with this cytostatic effect in the absence of exogenous iron were listed in the table 4 below.
as §1, §2, §3

[6] = system: L-ferritin and transferrin receptor genes; experiment: RT-qPCR of iron metabolism genes in Caco-2 cells; assay type: cell-based, human; details: Caco-2 in proliferative phase, 10 micromoles per liter, 72 hours
Description: After treatment for 72 hours of the Caco-2 cells in proliferative phase by the Quilamine HQ1-44 and ICL670 in a concentration of 10 micromoles per liter, an analysis is carried out by real-time polymerase chain reaction (RT-qPCR) technique of the expression of the two main genes for regulating intra-cell iron metabolism, that of L-ferritin, the iron-storing protein, and that of the transferrin receptor, which is the iron-importing protein of the membrane. The DNAc (complementary dioxyribonucleic acid) synthesized during the reverse transcription are amplified by the qPCR (quantity of polymerization chain reaction) to quantify the expression of the mNRA (messenger ribonucleic acid) of the genes involved in iron metabolism.

[7] = system: Caco-2 cells; experiment: Biochemical analysis of intra-cell iron, L-ferritin and transferrin soluble receptor in Caco-2 cells; assay type: cell-based, human; details: 72 hours; for intra-cell iron and L-ferritin concentrations: Caco-2, 10 micromoles per liter; for transferrin-soluble receptor: Caco-2 supernatant, 10 micromoles per liter
Description: After treatment for 72 hours of the Caco-2 cells in proliferative phase by Quilamine HQ1-44 and ICL670, biochemical analysis is carried out on the intra-cell iron (Fe2+ and Fe3+), of the two main proteins for regulating iron metabolism by the dosing of the intra-cell concentrations in L-ferritin, the iron storage protein, as well as the analysis of the transferrin soluble receptor the cell supernatant, which is a marker of the concentration in transferrin receptor, the iron importing protein of the membrane.

[8] = system: ODC, OAZ1, SAMDC and PAO genes; experiment: RT-qPCR of polyamine metabolism genes in Caco-2 cells; assay type: cell-based, human; details: proliferating Caco-2, 10 micromoles per liter, 72 hours
Description: After treatment for 72 hours of the Caco-2 cells, in proliferative phase by Quilamine HQ1-44 and ICL670 in a concentration of 10 micromoles per liter, an analysis is carried by RT-qPCR of the expression of the main genes for regulating the metabolism of polyamines, such as ornithine decarboxylase (ODC), antizyme (OAZ1), S-adenosyl methionine decarboxylase (SAMDC) and polyamine oxydase (PAO).

[9] = Fe(III) citrate 20 micromoles per liter
[10] = 72 h treatment, no exogenous iron, read-out: IC50 CHO
[11] = Caco-2 J4, cytostatic constituent, read-out: Constituent 1 (1-10 μM) IC50
[12] = Caco-2 J4, cytotoxic constituent, read-out: Constituent 2 (10-100 μM) IC50

Compound | influence of exogenous iron on the cytostatic (anti-proliferative) effect [1, 9] | IC50 [1, 10] [nM] | change of intra-cell concentration of putrescine (Put) [2] [%] | change of intra-cell concentration of spermidine (Spd) [2] [%] | influence of exogenous iron on the cytotoxic effect [3] | Constituent 1 (1-10 μM) % cell [4] [%] | Constituent 2 (10-100 μM) % cell [4] [%] | IC50 [4, 11] [µM] | IC50 [4, 12] [µM] | IC50 [5] [µM] | % of HepG2 cells concerned by the anti-proliferative effect [5] [%] | expression of the genes for L-ferritin and the transferrin receptor [6] | intra-cell iron and L-ferritin concentrations [7] | transferrin-soluble receptor [7] | expression of the genes of polyamine metabolism (ODC, OAZ1, SAMDC, PAO) [8] | further results
NCCCCNCCCCNCc1ccc2cccc(O)c2n1 [HQ1-44, 2-[4-(4-aminobutyl)aminobutyl]aminomethylquinolin-8-ol] | improvement | 1400 | −73 | −55 | partially inhibited | 70 | 30 | 1.3 | 20 | 2.75 | 30 | do not significantly modify | intra-cell iron depletion | no significant effect | no effect | IC50 ([1]; Fe(III) citrate 20 micromoles per liter, 72 h, read-out: IC50 CHO in the presence of exogenous iron): 600 nM; effect on intra-cell spermine (Spm) [2]: absence of an effect; influence of PTS activation by DFMO pre-treatment on cytotoxicity ([3]; HepG2, concentrations greater than 50 micromoles per liter (50-100)): amplification; influence of competitive inhibition of PTS by spermidine on the cytotoxic effects ([3]; HepG2, spermidine 50 micromoles per liter, Quilamine 50 to 100 micromoles per liter): inhibition; influence of competitive inhibition of PTS by spermidine on the cytostatic effects ([5]; HepG2, spermidine 50 micromoles per liter, Quilamine below 10 micromoles per liter): inhibition
O=C(O)c1ccc(-n2nc(-c3ccccc3O)nc2-c2ccccc2O)cc1 [ICL670, reference compound] | inhibition | 9200 | −34 | −15 | inhibition | 18 | 82 | 1.7 | 90 | 3.85 | 72.5 | do not significantly modify | intra-cell iron depletion | no significant effect | no effect | concentration of the cytotoxic constituent associated with release of LDH ([3]; HepG2, absence of exogenous iron): over 10 micromoles per liter; influence of exogenous iron on the cytostatic effect ([4]; Caco-2, after addition of exogenous iron): inhibition
